# Tests used:
# [1] = test system: mice infected with COVID-19 Delta virus; experiment: Lung histopathology of mice infected with COVID-19 Delta virus; type: in vivo, hACE2 transgenic C57BL/6 mice; settings: number of mice with this degree (four per group); 5 mg/kg gavage once a day, five days
# [2] = test system: mice with acute lung injury; experiment: Inflammatory factors (ELISA) in lung tissue and alveolar lavage fluid of mice with LPS acute lung injury; type: in vivo, Balb/c mice; settings: 5 mg/kg intraperitoneal 1 h before LPS; 24 h after modeling
# Description: Balb/c male mice, weighing 20-22 g, were randomly divided into five groups according to body weights, with eight mice in each group: a blank control group (propylene glycol-0.5% carboxymethylcellulose sodium), a model group (LPS, 15 mg/kg), a ginsenoside Rd low-dose group (10 mg/kg), a ginsenoside Rd high-dose group (20 mg/kg), and a Dexamethasone group (5 mg/kg). Mice in each group were intraperitoneally injected; after 1 h of administration, except for the blank control group, the mice in each group were intratracheally instilled with 20 μg of LPS for modeling; and the blank control group was intratracheally instilled with an equal volume of PBS.
# After 1 h of administration, a mouse ALI model was established; each mouse was intraperitoneally injected with sodium pentobarbital at 30 mg/kg, anesthetized and fixed on an operating table dorsally; skin preparation was carried out on the neck; the skin was incised to expose the trachea; 20 μg of LPS was instilled into the trachea using a microglass syringe; and then the mouse was gently rotated head up on the operating table, such that the instilled liquid was evenly distributed in the mouse lungs, and the skin incision was sutured.
# After 24 h of modeling, anesthetized mice were intraperitoneally injected with sodium pentobarbital at 30 mg/kg; lung tissues of the mice were taken and rinsed repeatedly in pre-cooled normal saline; the lung tissues were blood-removed, wiped with filter paper, weighed, and added with normal saline according to a ratio of 1:9 (W:V=1 g:9 ml); a tissue homogenate was prepared with a homogenization machine under an ice water bath; and a supernatant of mouse lung tissue homogenate was taken.
# The mouse was anesthetized, and the trachea was separated; the whole lung was lavaged with 0.5 ml of pre-cooled normal saline, stayed for 1 min, and slowly pumped back with a syringe, and this process was repeated three times; and BLAF was collected, and centrifuged for 15 min at 4° C. and 1600 rpm/min.
# In strict accordance with the operating instructions of an enzyme-linked immunosorbent assay kit (ELISA), the contents of TNF-α, IL-1β, IL-6 and IL-18 in the supernatant of mouse lung tissue homogenate and the BLAF supernatant were detected.
# [3] = test system: COVID-19 Delta virus-infected mice; experiment: IL-1β and MCP-1 expression (RT-qPCR) in lung homogenates of COVID-19 Delta virus-infected mice; type: in vivo, hACE2 transgenic C57BL/6 mice; settings: mRNA, blank group 1.00; 5 mg/kg gavage; Day 5 of infection
# [4] = test system: xylene-induced swelling of mouse ears; experiment: Xylene-induced swelling of mouse ears; type: in vivo, Kunming mice
# Description: […] KM mice, weighing 18-22 g, were randomly grouped, with ten mice in each group. The groups include a model group, a positive control group (Indomethacin, 10 mg/kg), a ginsenoside Rd low-dose group (5 mg/kg), and a ginsenoside Rd high-dose group (10 mg/kg). After 30 min of gavage administration of mice (the model group was administrated with the equal volume of 0.5% sodium carboxymethylcellulose by gavage), 0.03 ml of xylene was evenly applied to both sides of the right ear of each mouse in each group to cause inflammations on both sides, and the left ear of the mouse was not applied as a control. After 4 h, the mouse was killed by dislocation of cervical vertebra, the two ears of the mouse were cut off along the auricle, round ear slices of the same size (a diameter of 6 mm) were taken at the same position of the left and right ears and weighed respectively, a mass difference of the two ear slices was used as an ear swelling degree, and a swelling inhibition rate was calculated.
# [5] = test system: Chronic Obstructive Pulmonary Disease in Rats; experiment: Lung pathomorphology of rats with chronic obstructive pulmonary disease; type: in vivo, SD rats; settings: po, 2.5 mg/kg
# [6] = test system: Chronic Obstructive Pulmonary Disease in Rats; experiment: Serum TNF-α and IL-8 in rats with chronic obstructive pulmonary disease (LPS + smoking); type: in vivo, SD rats; settings: 2.5 mg/kg gavage
# Description: After adaptive feeding (20-25° C., a humidity of 50-60%) for 1 week, the rats were randomly divided into a blank group, a model group, a positive control group, a ginsenoside Rd high-dose group, and a ginsenoside Rd low-dose group, with ten rats in each group.
# Model group: on the Day 1 and Day 14, each rat was intraperitoneally injected with 10% chloral hydrate (300 mg/kg) for anesthesia; the head was fixed in a low position; the glottis was exposed; lipopolysaccharide was quickly injected into the trachea; and the rat was kept upright, and swung left and right for 10-20 s, such that the lipopolysaccharide was evenly distributed in the two lungs. On the Days 2-13, and 15-28, the lungs were smoked in a closed organic glass box for 30 min every day, with 15 cigarettes per day.
# Positive control group: the animal was anesthetized, and intratracheally injected with lipopolysaccharide, wherein smoking conditions and time were the same as those of the model group; and after tracheal injection of lipopolysaccharide for two weeks, the animal was administrated with Simvastatin by gavage (2.5 mg/kg), and killed after six weeks, and serum was collected.
# In accordance with the instructions, the levels of TNF-α and IL-8 in the serum were detected by enzyme-linked immunosorbent assay. The data was expressed as x±s, p<0.05, which meant that it was statistically significant.
# [7] = 10 mg/kg gavage 30 min before xylene, 4 h after xylene
structure (smiles),measurement,setting,value
"C[C@@H]1C[C@H]2[C@@H]3CCC4=CC(=O)C=C[C@]4(C)[C@@]3(F)[C@@H](O)C[C@]2(C)[C@@]1(O)C(=O)CO [Dexamethasone, reference compound]",Interstitial pneumonia Mild,[1],3
same,Interstitial pneumonia Moderate,[1],1
same,Interstitial pneumonia Severe,[1],0
same,Pulmonary hemorrhage Mild,[1],3
same,Pulmonary hemorrhage Moderate,[1],1
same,Pulmonary hemorrhage Severe,[1],0
same,IL-1β in alveolar lavage fluid,[2],58.56 ± 16.24 ng/L
same,IL-1β in lung tissue,[2],48.76 ± 12.76 ng/L
same,IL-6 in alveolar lavage fluid,[2],36.89 ± 6.16 ng/L
same,IL-6 in lung tissue,[2],49.73 ± 16.08 ng/L
same,IL-18 in alveolar lavage fluid,[2],56.38 ± 9.40 ng/L
same,IL-18 in lung tissue,[2],49.06 ± 15.41 ng/L
same,TNF-α in alveolar lavage fluid,[2],222.58 ± 60.91 ng/L
same,TNF-α in lung tissue,[2],58.64 ± 10.65 ng/L
same,IL-1β expression level in lung homogenate,[3],9.26 ± 10.27
same,MCP-1 expression level in lung homogenate,[3],6.27 ± 8.20
"COc1ccc2c(c1)c(CC(=O)O)c(C)n2C(=O)c1ccc(Cl)cc1 [Indomethacin, reference compound]",Ear mass difference,[4]; [7],10.87 ± 0.53 mg
same,Swelling degree,[4]; [7],6.48 ± 1.89 (mg) (%)
same,inhibition at 10 mg/kg,"[4]; Mus musculus, po, ear swelling, 10 mg/kg gavage, read-out: Inhibition rate",40.3%
"CCC(C)(C)C(=O)O[C@H]1C[C@@H](C)C=C2C=C[C@H](C)[C@H](CC[C@@H]3C[C@@H](O)CC(=O)O3)[C@H]21 [Simvastatin, reference compound]",Epithelial cell necrosis Mild,[5],7
same,Epithelial cell necrosis Moderate,[5],3
same,Epithelial cell necrosis Severe,[5],0
same,Interstitial inflammatory cell infiltration Mild,[5],6
same,Interstitial inflammatory cell infiltration Moderate,[5],4
same,Interstitial inflammatory cell infiltration Severe,[5],0
same,IL-8 in serum,[6],22.65 ± 11.56
same,TNF-α in serum,[6],11.71 ± 13.27
